Where two headings read alike, the source gives them in different places. Marks after values point to notes of the source that are not given here.
Experiments:
P. berghei hepatic stage = assay: In vitro activity against the hepatic stage of P. berghei infection (luciferase, Huh7 cells); type: cell-based, Plasmodium berghei
Procedure: (§1) The in vitro liver stage activity of gold complexes was assessed against P. berghei-infected Huh7 cells, as previously described. Briefly, Huh7 cells were cultured in RPMI-1640 medium supplemented with 10% (v/v) fetal bovine serum, 1% (v/v) penicillin/streptomycin, 1% (v/v) glutamine, 1% (v/v) non-essential amino acids and 10 mM HEPES. On the day prior to infection, Huh7 cells were seeded in 96-well plates at a density of approximately 3.1 × 10^4 cell/cm^2 and incubated at 37 °C, 5% CO2. Stock solutions of the complexes were initially prepared in DMSO and serially diluted in infection medium, i.e., culture medium supplemented with gentamicin (50 µg/mL) and fungizone (0.8 µg/mL), to obtain the test concentrations. As a control, DMSO was diluted in infection medium to a percentage that equals that of the highest compound concentrations tested. These dilutions were added to the cells in triplicates and incubated for 1 h at 37 °C, 5% CO2, after which 1 × 10^4 luciferase-expressing P. berghei sporozoites were added to each well. Plates were centrifuged at 1800× g for 5 min at room temperature and incubated for the duration of the assay. At 46 h post-infection (hpi), the impact of each compound concentration on cell viability was assessed by the Alamar Blue (Invitrogen, Buckinghamshire, UK) assay, according to the manufacturer’s recommendations. Infection was next assessed by bioluminescence, employing the Firefly Luciferase Assay Kit 2.0 (Biotium, Fremont, CA, USA), according to the manufacturer’s recommendations. For IC50 determination, nonlinear regression analysis was employed to fit the normalized results of the dose–response curves, using GraphPad Prism 8 (GraphPad software, La Jolla, CA, USA).

C. glabrata CBS138 = assay: MIC determination, C. glabrata; type: cell-based, Candida glabrata; details: RPMIG, 24 h, 35 °C
Source text: (§2) The bacterial strains Escherichia coli ATCC25922 and Staphylococcus aureus Newman were used in this work and maintained in Lennox Broth (LB) solid medium, composed of 10 g/L tryptone, 5 g/L yeast extract, 5 g/L NaCl and 20 g/L agar. The fungal strains Candida albicans SC5134 and C. glabrata CBS138 were used in this work and maintained in YPD solid medium, composed of 20 g/L glucose, 20 g/L peptone, 10 g/L yeast extract and 15 g/L agar. The strains were isolated from human infections.
(§3) The antimicrobial activity of the complexes towards the bacterial and fungal strains was assessed by the determination of the Minimal Inhibitory Concentration (MIC) of each complex towards the indicated microbial strains, based on standard methods, and as previously described. […] Serial 1:2 dilutions of stock solutions were prepared for each complex in Mueller–Hinton (MH) broth (Fluka Analytical) or RPMI-1640 medium (Sigma) supplemented with 20 g/L glucose and buffered with 0.165 M morpholinepropanesulphonic acid (RPMIG) to pH 7.0. Solutions prepared with MH were used for testing bacteria, while those prepared with RPMIG were used for testing fungi. For antibacterial activity assays, the final concentrations ranged from 250 to 0.24 μg/mL (when stock solution final concentration was 10 mg/mL), 125 μg/mL to 0.12 μg/mL (when stock solution final concentration was 5 mg/mL) and 62.5 to 0.06 μg/mL (when stock solution final concentration was 2.5 mg/mL). For antifungal assays, the final concentrations ranged from 125 μg/mL to 0.12 μg/mL (when stock solution final concentration was 10 mg/mL), 62.5 to 0.06 μg/mL (when stock solution final concentration was 5 mg/mL) and 31.25 to 0.03 μg/mL (when stock solution final concentration was 2.5 mg/mL). Then, 100 μL aliquots of adequately diluted bacterial suspensions of S. aureus Newman or E. coli ATCC 25922 were mixed with the MH serially diluted complexes aliquots to obtain 5 × 10^5 CFU/mL. In the case of fungi, cultures were diluted to obtain a final optical density of 0.025, measured at 530 nm (OD530). Bacterial suspensions were prepared from cultures grown for 5 h in MH broth at 37 °C and 250 rev·min^−1 and adequately diluted with fresh MH medium, while fungal suspensions were prepared from overnight cultures grown in YPD broth at 30 °C and 250 rev.min^−1 and diluted in buffered RPMIG. After 22 h of incubation at 37 °C (bacteria) or 24 h at 35 °C (fungi), the wells’ content was resuspended by pipetting and the OD640 (bacteria) or OD530 (fungi) were measured in a SPECTROstar Nano microplate reader (BMG Labtech).
(§4) At least three independent experiments were performed in duplicate for each complex under study. […] Positive (no complex) and negative controls (no inoculum) were performed for each experiment. The effect of 5% (V/V) DMSO on microbial growth was also assessed.

[1] = tested on: A2780 ovarian cancer cells; assay: MTT cytotoxicity assay in A2780 (cisplatin sensitive) ovarian cancer cells; type: cell-based, human
Procedure: (§5) Cells were exposed to increasing concentrations of the complexes (0.01–100 μM) for 24 and/or 48 h, at 37 °C. The IC50 values were calculated from dose–response curves using the colorimetric MTT assay. […] Most complexes presented a similar cytotoxicity profile compared to Auranofin, but higher activity compared to Cisplatin, and, most importantly, were active in the Cisplatin-resistant OVCAR8 cells (Table 2).
(§6) The cytotoxic activity of the complexes was evaluated in the A2780 (cisplatin sensitive) (Sigma-Aldrich) and OVCAR8 (cisplatin resistant) (ATCC) ovarian cancer cells. Cells were grown in RPMI-1640 medium (Gibco, Thermo Fisher) supplemented with 10% fetal bovine serum (FBS) and were maintained at 37 °C in a humidified atmosphere with 5% CO2. The complexes were initially dissolved in DMSO and then in culture medium to prepare serial dilutions in the range 10^−9–10^−4 M. After 24 and/or 48 h incubation the cellular viability was measured by the colorimetric MTT assay, as previously described.

E. coli ATCC25922 = assay: MIC determination, E. coli; type: cell-based, Escherichia coli; details: MH broth, 22 h, 37 °C
Source text: as §2, §3, §4

Huh7 cells = assay: Cell viability (cell confluency, Alamar Blue) of P. berghei-infected Huh7 cells; type: cell-based; details: 5 µM, in words
Procedure: as §1

S. aureus Newman = assay: MIC determination, S. aureus; type: cell-based, Staphylococcus aureus; details: MH broth, 22 h, 37 °C
Source text: as §2, §3, §4

C. albicans SC5134 = assay: MIC determination, C. albicans; type: cell-based, Candida albicans; details: RPMIG, 24 h, 35 °C
Source text: as §2, §3, §4

[2] = tested on: OVCAR8 ovarian cancer cells; assay: MTT cytotoxicity assay in OVCAR8 (cisplatin resistant) ovarian cancer cells; type: cell-based, human; details: 48 h incubation
Procedure: as §5, §6

[3] = tested on: zebrafish (Danio rerio) embryos; assay: Acute toxicity (mortality) in zebrafish embryo; type: in vivo; details: 72 hpf embryos, 0.1–10 μM, 48 h, in words
Source text: Toxicity is a major challenge for drug development and is the leading cause of drug failure. Consequently, the evaluation of the potential toxicity represents a critical step in the development of new drugs. In this context, the zebrafish embryo represents a notable in vivo vertebrate model for studying the toxic effects of chemical compounds due to the small size, robustness, multiple progenies from a single mating, chemical permeability, easiness of observation and maintenance under laboratory conditions. In addition, the close phylogeny of zebrafish and mammals, with highly conserved signaling pathways, makes this species increasingly used and ideal for performing toxicological studies. Therefore, we evaluated the complexes acute toxicity by measuring mortality of 72 h post-fertilization (hpf) zebrafish embryos when incubated with increasing concentrations of the Au(III) complexes for 48 h.
To test the toxicological effect of the gold (III) complexes, zebrafish (Danio rerio) embryos at developmental stage of 72 h post-fertilization (hpf) were exposed to different concentrations of the target complexes and mortality was assessed for 48 h of treatment. […]

[4] = 24 h incubation, read-out: IC50 A2780, 24 h
[5] = 48 h incubation, read-out: IC50 A2780, 48 h

Row | SMILES | activity against hepatic stage of P. berghei (positive control) (P. berghei hepatic stage; in words) | MIC C. glabrata CBS138 (C. glabrata CBS138) | IC50 [1, 4] | IC50 [1, 5] | MIC E. coli ATCC25922 (E. coli ATCC25922) | toxicity seen as lower cell confluency (Huh7 cells) | MIC S. aureus Newman (S. aureus Newman) | MIC C. albicans SC5134 (C. albicans SC5134) | IC50 [2] | toxicity in zebrafish embryo [3] | IC50 (P. berghei hepatic stage; hepatic stage, Huh7 cells, 46 hpi)
1 | O=C1C(O)=C([C@H]2CC[C@H](c3ccc(Cl)cc3)CC2)C(=O)c2ccccc21 [Atovaquone, reference compound] | nanomolar-ranged activity | – | – | – | – | – | – | – | – | – | –
2 | CCN1C(=C(C#N)C#N)SC2=C1[S][Au-]1([S]2)[S]C2=C([S]1)N(CC)C(=C(C#N)C#N)S2.CC[N+](CC)(CC)CC [[N][AuSEt(=C(CN)2)]] | – | >62.5 µg/mL | 1320 ± 200 nM | 170 nM | >125 µg/mL | some degree of toxicity | >125 µg/mL | >62.5 µg/mL | 1480 ± 410 nM | more toxic than [N][AuSEt(=S)] | –
3 | CC[N+](CC)(CC)CC.Cn1c2c(sc1=S)[S][Au-]1([S]c3sc(=S)n(C)c3[S]1)[S]2 [[N][AuSMe(=S)]] | – | 2.9 ± 0.9 µg/mL | 1630 ± 400 nM | 110 nM | >250 µg/mL | some degree of toxicity | 4.4 ± 0.2 µg/mL | >62.5 *** µg/mL | 2440 ± 780 nM | – | 429 ± 39.6 nM
4 | CC(C)n1c2c(sc1=S)[Se][Au-]1([Se]c3sc(=S)n(C(C)C)c3[Se]1)[Se]2.CC[N+](CC)(CC)CC [[N][AuSeiPr(=S)]] | – | 2.1 ± 0.1 µg/mL | 30300 ± 3390 nM | 8270 ± 1120 nM | >250 µg/mL | – | 1.5 ± 0.1 µg/mL | >125 µg/mL | 8760 ± 690 nM | – | –

Reference: PMC9266914, “Broad Spectrum Functional Activity of Structurally Related Monoanionic Au(III) Bis(Dithiolene) Complexes” (International Journal of Molecular Sciences, 2022)
